Measured values taken from ChEMBL document CHEMBL1764959, “Design, synthesis, and structure-activity relationship studies of thiophene-3-carboxamide derivatives as dual inhibitors of the c-Jun N-terminal kinase” (Bioorg Med Chem, 2011).

Key:
[1] = molecular target: T1, Mitogen-activated protein kinase 8 (Homo sapiens, UniProt P45983); assay: Inhibition of JNK1 by TR-FRET assay
[2] = tested on: Liver microsomes; assay: Half life in rat liver microsomes by LC/MS analysis; assay type: ADME, Microsome
[3] = tested on: Plasma; assay: Metabolic stability in rat plasma after 60 mins by LC/MS analysis; assay type: ADME, cell-free; settings: 1 h
[4] = molecular target: T1, Mitogen-activated protein kinase 8; assay: Displacement of biotin-labeled JIP1 peptide from JNK1 by DELFIA assay
[5] = molecular target: T2, Mitogen-activated protein kinase 9 (Homo sapiens, UniProt P45984); assay: Inhibition of JNK2 at 25 uM by TR-FRET assay
[6] = molecular target: Mitogen-activated protein kinase 10 (Homo sapiens) (UniProt P53779); assay: Inhibition of JNK3 at 25 uM by TR-FRET assay
[7] = molecular target: Mitogen-activated protein kinase 14 (Homo sapiens) (UniProt Q16539); assay: Inhibition of MAPK14 at 25 uM by direct TR-FRET assay
[8] = molecular target: Mitogen-activated protein kinase 3 (Homo sapiens) (UniProt P27361); assay: Inhibition of MAPK3 at 25 uM by TR-FRET assay
[9] = molecular target: Mitogen-activated protein kinase 1 (Homo sapiens) (UniProt P28482); assay: Inhibition of MAPK1 at 25 uM by TR-FRET assay
[10] = molecular target: RAC-alpha serine/threonine-protein kinase (Homo sapiens) (UniProt P31749); assay: Inhibition of AKT1 at 25 uM by TR-FRET assay
[11] = molecular target: 5'-AMP-activated protein kinase catalytic subunit alpha-1 (Homo sapiens) (UniProt Q13131); assay: Inhibition of AMPK A1 at 25 uM by TR-FRET assay
[12] = molecular target: Aurora kinase A (Homo sapiens) (UniProt O14965); assay: Inhibition of AURK A at 25 uM by TR-FRET assay
[13] = molecular target: Serine/threonine-protein kinase B-raf (Homo sapiens) (UniProt P15056); assay: Inhibition of BRAF at 25 uM by TR-FRET assay
[14] = molecular target: Calcium/calmodulin-dependent protein kinase type 1 (Homo sapiens) (UniProt Q14012); assay: Inhibition of CAMK1 at 25 uM by TR-FRET assay
[15] = molecular target: Cyclin-dependent kinase 1 (Homo sapiens) (UniProt P06493); assay: Inhibition of CDK1 at 25 uM by TR-FRET assay
[16] = molecular target: Serine/threonine-protein kinase Chk1 (Homo sapiens) (UniProt O14757); assay: Inhibition of CHEK1 at 25 uM by TR-FRET assay
[17] = molecular target: Inhibitor of nuclear factor kappa-B kinase subunit alpha (Homo sapiens) (UniProt O15111); assay: Inhibition of CHUK at 25 uM by TR-FRET assay
[18] = molecular target: Serine/threonine-protein kinase mTOR (Homo sapiens) (UniProt P42345); assay: Inhibition of FRAP1 at 25 uM by TR-FRET assay
[19] = molecular target: Glycogen synthase kinase-3 alpha (Homo sapiens) (UniProt P49840); assay: Inhibition of GSK3alpha at 25 uM by TR-FRET assay
[20] = molecular target: Dual specificity mitogen-activated protein kinase kinase 1 (Homo sapiens) (UniProt Q02750); assay: Inhibition of MAK2K1 at 25 uM by TR-FRET assay
[21] = molecular target: Mitogen-activated protein kinase kinase kinase 9 (Homo sapiens) (UniProt P80192); assay: Inhibition of MAPK3K9 at 25 uM by TR-FRET assay
[22] = molecular target: Mitogen-activated protein kinase 14 (Homo sapiens) (UniProt Q16539); assay: Inhibition of MAPK14 at 25 uM by TR-FRET assay
[23] = molecular target: Serine/threonine-protein kinase Nek1 (Homo sapiens) (UniProt Q96PY6); assay: Inhibition of NEK1 at 25 uM by TR-FRET assay
[24] = molecular target: 3-phosphoinositide-dependent protein kinase 1 (Homo sapiens) (UniProt O15530); assay: Inhibition of PDK1 at 25 uM by direct TR-FRET assay
[25] = molecular target: Phosphatidylinositol 4,5-bisphosphate 3-kinase catalytic subunit alpha isoform (Homo sapiens) (UniProt P42336); assay: Inhibition of PI3Kalpha at 25 uM by TR-FRET assay
[26] = molecular target: Serine/threonine-protein kinase pim-1 (Homo sapiens) (UniProt P11309); assay: Inhibition of PIM1 at 25 uM by TR-FRET assay
[27] = molecular target: Protein kinase C alpha type (Homo sapiens) (UniProt P17252); assay: Inhibition of PRKCA at 25 uM by TR-FRET assay
[28] = molecular target: Rho-associated protein kinase 1 (Homo sapiens) (UniProt Q13464); assay: Inhibition of ROCK1 at 25 uM by TR-FRET assay
[29] = molecular target: Sphingosine kinase 1 (Homo sapiens) (UniProt Q9NYA1); assay: Inhibition of SPHK1 at 25 uM by TR-FRET assay
[30] = molecular target: Mitogen-activated protein kinase kinase kinase kinase 2 (Homo sapiens) (UniProt Q12851); assay: Inhibition of MAP4K2 at 25 uM by TR-FRET assay
[31] = molecular target: T2, Mitogen-activated protein kinase 9; assay: Binding affinity to JNK2
[32] = molecular target: T1, Mitogen-activated protein kinase 8; settings: 25 uM
Description: Inhibition of JNK1 at 25 uM by TR-FRET assay

T1 sequence (P45983 whole entry): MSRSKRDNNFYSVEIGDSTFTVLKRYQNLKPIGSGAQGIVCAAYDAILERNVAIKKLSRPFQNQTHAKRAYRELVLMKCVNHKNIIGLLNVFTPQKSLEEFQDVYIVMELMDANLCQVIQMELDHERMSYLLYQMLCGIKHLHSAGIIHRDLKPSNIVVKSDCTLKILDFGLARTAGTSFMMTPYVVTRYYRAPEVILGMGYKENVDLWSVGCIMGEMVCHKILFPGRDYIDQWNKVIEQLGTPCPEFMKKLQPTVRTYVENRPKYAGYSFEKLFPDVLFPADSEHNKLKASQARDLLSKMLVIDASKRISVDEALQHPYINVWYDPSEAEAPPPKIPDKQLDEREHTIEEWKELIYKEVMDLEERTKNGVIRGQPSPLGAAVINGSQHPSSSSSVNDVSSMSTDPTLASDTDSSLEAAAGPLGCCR
Chain of Mitogen-activated protein kinase 14 (Homo sapiens) (Q16539 whole entry): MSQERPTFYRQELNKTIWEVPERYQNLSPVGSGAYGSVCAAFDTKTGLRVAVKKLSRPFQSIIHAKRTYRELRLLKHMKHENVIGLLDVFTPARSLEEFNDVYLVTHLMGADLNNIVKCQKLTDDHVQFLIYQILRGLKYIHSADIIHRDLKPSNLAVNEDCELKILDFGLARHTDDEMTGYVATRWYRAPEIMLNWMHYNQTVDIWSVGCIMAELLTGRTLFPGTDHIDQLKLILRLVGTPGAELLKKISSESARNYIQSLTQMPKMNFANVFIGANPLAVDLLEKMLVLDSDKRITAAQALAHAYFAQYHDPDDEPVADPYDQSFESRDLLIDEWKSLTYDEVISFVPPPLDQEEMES
Chain of Serine/threonine-protein kinase Nek1 (Homo sapiens) (Q96PY6 whole entry): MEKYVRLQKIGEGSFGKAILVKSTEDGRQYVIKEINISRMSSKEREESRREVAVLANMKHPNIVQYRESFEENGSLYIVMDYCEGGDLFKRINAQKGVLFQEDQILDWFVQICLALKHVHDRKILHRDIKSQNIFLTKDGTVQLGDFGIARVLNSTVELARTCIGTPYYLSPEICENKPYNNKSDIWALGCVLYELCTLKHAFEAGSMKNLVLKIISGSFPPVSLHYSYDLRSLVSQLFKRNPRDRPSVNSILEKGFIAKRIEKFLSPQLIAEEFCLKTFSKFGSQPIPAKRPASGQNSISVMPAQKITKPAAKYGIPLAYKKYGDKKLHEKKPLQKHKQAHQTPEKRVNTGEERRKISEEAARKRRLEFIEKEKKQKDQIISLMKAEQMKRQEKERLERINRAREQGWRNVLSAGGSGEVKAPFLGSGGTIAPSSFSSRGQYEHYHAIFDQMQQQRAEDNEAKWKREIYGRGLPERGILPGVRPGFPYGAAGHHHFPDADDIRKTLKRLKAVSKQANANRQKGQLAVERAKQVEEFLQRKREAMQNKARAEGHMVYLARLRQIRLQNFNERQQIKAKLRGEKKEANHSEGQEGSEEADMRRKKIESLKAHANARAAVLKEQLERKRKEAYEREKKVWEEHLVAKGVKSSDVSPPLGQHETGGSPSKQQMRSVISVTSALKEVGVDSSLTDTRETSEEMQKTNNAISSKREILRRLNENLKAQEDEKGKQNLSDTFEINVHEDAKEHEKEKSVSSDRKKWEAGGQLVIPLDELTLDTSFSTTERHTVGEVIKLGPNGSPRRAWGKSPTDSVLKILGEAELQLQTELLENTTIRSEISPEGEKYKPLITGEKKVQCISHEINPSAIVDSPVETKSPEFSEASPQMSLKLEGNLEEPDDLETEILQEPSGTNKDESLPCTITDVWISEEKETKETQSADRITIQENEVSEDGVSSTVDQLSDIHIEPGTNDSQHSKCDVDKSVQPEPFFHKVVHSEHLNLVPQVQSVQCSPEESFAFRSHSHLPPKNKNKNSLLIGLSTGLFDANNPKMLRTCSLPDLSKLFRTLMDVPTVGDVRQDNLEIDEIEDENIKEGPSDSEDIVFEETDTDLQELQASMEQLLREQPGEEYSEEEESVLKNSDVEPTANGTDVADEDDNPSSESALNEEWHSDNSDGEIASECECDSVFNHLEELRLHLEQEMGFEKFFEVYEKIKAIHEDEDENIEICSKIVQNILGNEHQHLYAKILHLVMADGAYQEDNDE
Chain of RAC-alpha serine/threonine-protein kinase (Homo sapiens) (P31749 whole entry): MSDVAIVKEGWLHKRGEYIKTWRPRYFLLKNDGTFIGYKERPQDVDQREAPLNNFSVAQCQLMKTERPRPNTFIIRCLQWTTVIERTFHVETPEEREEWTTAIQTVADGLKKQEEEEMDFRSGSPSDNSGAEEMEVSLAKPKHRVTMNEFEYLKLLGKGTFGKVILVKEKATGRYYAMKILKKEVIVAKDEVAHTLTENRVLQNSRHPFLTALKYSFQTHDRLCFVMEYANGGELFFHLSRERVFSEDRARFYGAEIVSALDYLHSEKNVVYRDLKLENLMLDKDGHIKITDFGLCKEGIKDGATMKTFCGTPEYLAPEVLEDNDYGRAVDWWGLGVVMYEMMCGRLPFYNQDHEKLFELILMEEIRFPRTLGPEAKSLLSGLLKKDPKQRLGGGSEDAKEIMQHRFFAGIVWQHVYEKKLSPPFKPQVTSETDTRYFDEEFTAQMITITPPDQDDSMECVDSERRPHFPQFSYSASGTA
Chain of Phosphatidylinositol 4,5-bisphosphate 3-kinase catalytic subunit alpha isoform (Homo sapiens) (P42336 whole entry, canonical isoform): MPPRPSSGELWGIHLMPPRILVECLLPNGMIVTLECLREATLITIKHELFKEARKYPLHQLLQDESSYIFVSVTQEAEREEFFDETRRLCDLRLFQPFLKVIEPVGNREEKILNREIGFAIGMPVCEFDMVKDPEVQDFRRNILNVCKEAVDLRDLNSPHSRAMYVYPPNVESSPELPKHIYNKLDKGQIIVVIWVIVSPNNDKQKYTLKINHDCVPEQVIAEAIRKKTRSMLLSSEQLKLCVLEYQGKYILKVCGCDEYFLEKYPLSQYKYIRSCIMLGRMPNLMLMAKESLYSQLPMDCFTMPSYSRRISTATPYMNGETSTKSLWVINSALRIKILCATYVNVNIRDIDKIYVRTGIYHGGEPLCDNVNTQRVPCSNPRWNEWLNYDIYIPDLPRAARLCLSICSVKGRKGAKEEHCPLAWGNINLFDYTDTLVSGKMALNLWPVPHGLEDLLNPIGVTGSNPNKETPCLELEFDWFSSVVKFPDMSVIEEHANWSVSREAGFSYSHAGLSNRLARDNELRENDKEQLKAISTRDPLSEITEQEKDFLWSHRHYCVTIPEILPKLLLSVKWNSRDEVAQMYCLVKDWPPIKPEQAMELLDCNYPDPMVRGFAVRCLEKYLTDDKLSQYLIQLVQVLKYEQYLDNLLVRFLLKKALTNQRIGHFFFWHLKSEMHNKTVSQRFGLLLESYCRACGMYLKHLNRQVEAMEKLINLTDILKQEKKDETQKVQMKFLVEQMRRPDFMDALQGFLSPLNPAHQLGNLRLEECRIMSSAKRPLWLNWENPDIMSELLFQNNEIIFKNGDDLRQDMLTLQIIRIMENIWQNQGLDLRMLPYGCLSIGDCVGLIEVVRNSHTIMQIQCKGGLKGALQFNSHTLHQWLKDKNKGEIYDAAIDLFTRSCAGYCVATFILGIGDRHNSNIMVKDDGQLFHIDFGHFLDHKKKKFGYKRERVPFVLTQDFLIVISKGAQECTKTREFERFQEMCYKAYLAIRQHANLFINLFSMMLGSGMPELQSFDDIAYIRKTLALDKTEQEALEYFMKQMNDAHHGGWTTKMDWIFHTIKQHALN
Chain of Serine/threonine-protein kinase B-raf (Homo sapiens) (P15056 whole entry): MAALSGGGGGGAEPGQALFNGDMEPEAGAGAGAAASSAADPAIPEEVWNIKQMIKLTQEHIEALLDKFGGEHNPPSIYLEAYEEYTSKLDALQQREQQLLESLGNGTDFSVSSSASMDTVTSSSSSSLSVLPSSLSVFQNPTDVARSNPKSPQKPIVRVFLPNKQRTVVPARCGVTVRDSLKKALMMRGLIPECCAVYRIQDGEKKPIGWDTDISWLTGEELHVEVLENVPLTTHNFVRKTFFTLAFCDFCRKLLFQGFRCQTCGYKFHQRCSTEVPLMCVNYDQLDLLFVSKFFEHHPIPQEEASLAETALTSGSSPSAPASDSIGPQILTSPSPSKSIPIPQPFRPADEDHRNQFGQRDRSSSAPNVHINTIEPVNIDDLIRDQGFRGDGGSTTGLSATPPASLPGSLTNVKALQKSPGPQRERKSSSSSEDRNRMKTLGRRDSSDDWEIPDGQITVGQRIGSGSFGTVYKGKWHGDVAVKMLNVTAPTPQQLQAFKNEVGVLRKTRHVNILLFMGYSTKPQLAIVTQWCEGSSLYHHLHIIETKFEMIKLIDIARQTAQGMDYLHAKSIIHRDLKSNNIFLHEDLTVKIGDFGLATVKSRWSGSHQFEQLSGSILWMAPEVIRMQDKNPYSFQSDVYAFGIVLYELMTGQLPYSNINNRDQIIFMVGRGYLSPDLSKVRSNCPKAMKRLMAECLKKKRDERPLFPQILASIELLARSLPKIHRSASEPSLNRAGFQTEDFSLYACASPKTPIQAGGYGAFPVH
Chain of Sphingosine kinase 1 (Homo sapiens) (Q9NYA1 whole entry): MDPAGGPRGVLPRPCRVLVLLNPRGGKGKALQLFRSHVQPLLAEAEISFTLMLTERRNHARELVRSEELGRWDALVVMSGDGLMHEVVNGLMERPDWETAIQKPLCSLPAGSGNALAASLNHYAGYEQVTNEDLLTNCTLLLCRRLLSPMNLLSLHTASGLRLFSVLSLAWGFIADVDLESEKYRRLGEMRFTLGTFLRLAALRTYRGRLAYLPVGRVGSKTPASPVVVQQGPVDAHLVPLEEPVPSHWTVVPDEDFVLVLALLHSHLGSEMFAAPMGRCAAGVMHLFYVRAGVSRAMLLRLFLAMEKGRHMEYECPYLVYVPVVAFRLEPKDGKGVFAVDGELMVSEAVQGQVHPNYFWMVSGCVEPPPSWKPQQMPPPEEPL
Chain of Cyclin-dependent kinase 1 (Homo sapiens) (P06493 whole entry, looked up): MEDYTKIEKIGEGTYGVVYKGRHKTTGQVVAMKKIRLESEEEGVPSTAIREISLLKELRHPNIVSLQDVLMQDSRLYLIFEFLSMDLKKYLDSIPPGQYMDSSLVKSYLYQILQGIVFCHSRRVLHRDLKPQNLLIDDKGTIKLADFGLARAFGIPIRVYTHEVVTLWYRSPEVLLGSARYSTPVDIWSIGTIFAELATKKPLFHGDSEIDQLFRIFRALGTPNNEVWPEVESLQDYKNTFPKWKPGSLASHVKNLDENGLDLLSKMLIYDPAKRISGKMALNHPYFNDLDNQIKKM

NC(=O)c1ccsc1NC(=O)Cc1ccc(F)cc1F
IC50 [1]: 9.7 µM

NC(=O)c1ccsc1NC(=O)Cc1cccc(I)c1
IC50 [1]: 1.8 µM

Cc1ccccc1CC(=O)Nc1sccc1C(N)=O
IC50 [1]: 6 µM

NC(=O)c1ccsc1NC(=O)Cc1ccc(-c2ccccc2)cc1
IC50 [1]: > 50 µM

NC(=O)c1ccsc1NC(=O)Cc1ccc([N+](=O)[O-])cc1
IC50 [1]: 2.9 µM

NC(=O)c1ccsc1NC(=O)Cc1ccccc1Br
IC50 [1]: 2.9 µM

NC(=O)c1ccsc1NC(=O)Cc1cccc(Cl)c1
IC50 [1]: 2.6 µM

NC(=O)c1ccsc1NC(=O)Cc1ccccc1F
IC50 [1]: 8.3 µM

NC(=O)c1ccsc1NC(=O)Cc1ccc2c(c1)CCCC2
IC50 [1]: 3.6 µM

NC(=O)c1ccsc1NC(=O)Cc1cc(F)ccc1F
IC50 [1]: 5.8 µM

NC(=O)c1ccsc1NC(=O)CN1CCOCC1
IC50 [1]: > 50 µM

CC1CN(CC(=O)Nc2sccc2C(N)=O)CC(C)O1 (configuration not stated)
IC50 [1]: 65.3 µM

NC(=O)c1ccsc1NC(=O)Cc1ccc(F)c(F)c1
IC50 [1]: 10.2 µM

NC(=O)c1ccsc1NC(=O)Cc1cccc(F)c1
IC50 [1]: 9.4 µM

NC(=O)c1ccsc1NC(=O)Cc1c[nH]c2ccccc12
IC50 [1]: 9.4 µM

NC(=O)c1ccc(NC(=O)Cc2cccc3ccccc23)s1
IC50 [1]: > 100 µM

NC(=O)c1ccsc1NC(=O)Cc1ccccc1
IC50 [1]: 3.6 µM

Cc1cc(C(N)=O)c(NC(=O)Cc2cccc3ccccc23)s1
IC50 [1]: > 25 µM

NC(=O)c1ccsc1NC(=O)Cc1ccc2c(c1)CCC2
IC50 [1]: 2.5 µM

NC(=O)c1ccsc1NC(=O)Cc1c(F)cccc1Cl
IC50 [1]: 12.5 µM

NC(=O)c1ccsc1NC(=O)Cc1ccc(C(F)(F)F)cc1
IC50 [1]: 6.4 µM

NC(=O)c1ccsc1NC(=O)Cc1csc(-c2ccccc2)n1
IC50 [1]: > 25 µM

NC(=O)c1ccsc1NC(=O)/C=C/c1ccccc1
IC50 [1]: > 100 µM

Cc1sc(NC(=O)Cc2cccc3ccccc23)c(C(N)=O)c1C
IC50 [1]: 26 µM

NC(=O)c1ccsc1NC(=O)Cc1coc2ccccc12
IC50 [1]: > 25 µM

NC(=O)c1ccsc1NC(=O)Cc1cc(F)cc(F)c1
IC50 [1]: 8.2 µM

Cc1cccc(CC(=O)Nc2sccc2C(N)=O)c1
IC50 [1]: 5.4 µM

NC(=O)c1ccsc1NC(=O)Cc1nc(-c2cccs2)cs1
IC50 [1]: > 25 µM

NC(=O)c1ccsc1NC(=O)Cc1ccc2ccccc2c1
IC50 [1]: > 25 µM

NC(=O)c1ccsc1NC(=O)CN1CCN(S(=O)(=O)c2ccccc2C(F)(F)F)CC1
IC50 [1]: 75.1 µM

CCOc1ccc(CC(=O)Nc2sccc2C(N)=O)cc1
IC50 [1]: 1.9 µM

NC(=O)c1ccsc1NC(=O)Cc1ccc(OC(F)(F)F)cc1
IC50 [1]: 5.8 µM

N#Cc1ccsc1NC(=O)Cc1cccc2ccccc12
IC50 [1]: > 100 µM

NC(=O)c1ccsc1NC(=O)CN1CCN(C(=O)C2CC2)CC1
IC50 [1]: 83.5 µM

NC(=O)c1ccsc1NC(=O)c1ccccc1
IC50 [1]: 5.9 µM

Cc1cnc2sc(CC(=O)Nc3sccc3C(N)=O)cn12
IC50 [1]: 2.5 µM

NC(=O)c1ccsc1NC(=O)Cc1ccccc1Cl
IC50 [1]: 1.4 µM | t1/2 [2]: 27 min | Stability [3]: Stable

NC(=O)c1ccccc1NC(=O)Cc1cccc2ccccc12
IC50 [1]: > 100 µM

NC(=O)c1ccsc1NC(=O)CCc1ccccc1
IC50 [1]: > 100 µM

COc1ccc(CC(=O)Nc2sccc2C(N)=O)cc1
IC50 [1]: 5.7 µM

Cc1cc(C)cc(CC(=O)Nc2sccc2C(N)=O)c1
IC50 [1]: 2.7 µM

O=C(Cc1cccc2ccccc12)Nc1sccc1C(=O)O
IC50 [1]: > 100 µM

Cc1ccc(CC(=O)Nc2sccc2C(N)=O)cc1
IC50 [1]: 4.3 µM

CC(C)c1ccc(CC(=O)Nc2sccc2C(N)=O)cc1
IC50 [1]: > 25 µM

NC(=O)c1ccsc1NC(=O)Cc1cccc([N+](=O)[O-])c1
IC50 [1]: > 25 µM

NC(=O)c1ccsc1NC(=O)Cc1nc2ccccc2[nH]1
IC50 [1]: > 25 µM

NC(=O)c1ccsc1NC(=O)Cc1ccc2ccc3cccc4ccc1c2c34
IC50 [1]: > 50 µM

COc1ccc2cc(Br)ccc2c1CC(=O)Nc1sccc1C(N)=O
IC50 [1]: > 25 µM

NC(=O)c1ccsc1NC(=O)Cc1cc(F)cc2c1OCOC2
IC50 [1]: 4.9 µM

NC(=O)c1ccsc1NC(=O)Cc1c(F)c(F)c(F)c(F)c1F
IC50 [1]: > 50 µM

COC(=O)c1ccsc1NC(=O)Cc1cccc2ccccc12
IC50 [1]: > 100 µM

NC(=O)c1ccsc1NC(=O)Cc1cccc(C(F)(F)F)c1
IC50 [1]: 7.6 µM

COc1ccc2c(CC(=O)Nc3sccc3C(N)=O)c(Br)ccc2c1
IC50 [1]: > 25 µM

NC(=O)c1ccsc1NC(=O)Cc1cc(Cl)c2c(c1)OCCCO2
IC50 [1]: 1.9 µM

NC(=O)c1ccsc1NC(=O)Cc1csc2nc(-c3cccs3)cn12
IC50 [1]: 2.5 µM

COc1cccc(CC(=O)Nc2sccc2C(N)=O)c1
IC50 [1]: 2.6 µM

NC(=O)c1ccsc1NC(=O)CN1CCN(Cc2ccco2)CC1
IC50 [1]: 7.6 µM

NC(=O)c1ccsc1NC(=O)Cc1ccc(F)cc1
IC50 [1]: 5.1 µM

CC(C)Cc1ccc(CC(=O)Nc2sccc2C(N)=O)cc1
IC50 [1]: > 25 µM

NC(=O)c1ccsc1NC(=O)Cc1csc2ccccc12
IC50 [1]: 1.3 µM | IC50 [4]: 4.62 µM | inhibition [5]: 72% | inhibition [6]: 18% | inhibition [7]: 2% | inhibition [8]: 3% | inhibition [9]: 4% | inhibition [10]: 5% | inhibition [11]: 0% | inhibition [12]: 0% | inhibition [13]: 2% | inhibition [14]: 2% | inhibition [15]: 3% | inhibition [16]: 0% | inhibition [17]: 0% | inhibition [18]: 0% | inhibition [19]: 16% | inhibition [20]: 0% | inhibition [21]: 0% | inhibition [22]: 11% | inhibition [23]: 0% | inhibition [24]: 0% | inhibition [25]: 4% | inhibition [26]: 0% | inhibition [27]: 0% | inhibition [28]: 0% | inhibition [29]: 1% | inhibition [30]: 1% | Kd [31]: 0.64 µM | Stability [3]: Stable | inhibition [32]: 79%

NC(=O)c1ccsc1NC(=O)Cc1cccnc1
IC50 [1]: 8.1 µM

NC(=O)c1ccsc1NC(=O)Cc1c(F)cccc1F
IC50 [1]: 7.4 µM

NC(=O)c1ccsc1NC(=O)Cc1ccc(Cl)cc1
IC50 [1]: 18.7 µM

NC(=O)c1ccsc1NC(=O)Cc1ccccc1I
IC50 [1]: 3.4 µM

NC(=O)c1ccsc1NC(=O)Cc1ccc2c(c1)OCO2
IC50 [1]: 1.8 µM

COc1ccccc1CC(=O)Nc1sccc1C(N)=O
IC50 [1]: 11.9 µM

NC(=O)c1ccsc1NC(=O)Cc1cccc(Br)c1
IC50 [1]: 1.8 µM | t1/2 [2]: 24 min | Stability [3]: Stable

N#Cc1cccc(CC(=O)Nc2sccc2C(N)=O)c1
IC50 [1]: 20.9 µM

COc1ccc(CC(=O)Nc2sccc2C(N)=O)cc1OC
IC50 [1]: > 25 µM

N#Cc1ccc(CC(=O)Nc2sccc2C(N)=O)cc1
IC50 [1]: 3.4 µM

NC(=O)c1ccsc1NC(=O)Cc1ccc(Br)cc1
IC50 [1]: > 25 µM

COc1cc(CC(=O)Nc2sccc2C(N)=O)cc(OC)c1
IC50 [1]: 3.1 µM

Cc1csc(NC(=O)Cc2cccc3ccccc23)c1C(N)=O
IC50 [1]: > 25 µM
